One assay deals with ES-derived cells. Kind of assay: Methylcellulose hematopoietic colony forming unit (CFU) assay of ES-derived cells exposed to wall shear stress or static culture. The note with it: 2 mM; for number of CFUs in ES-derived cultures in static conditions: static conditions (no shear stress), n=2. The assay is classed as cell-based, mouse. On the procedure: Ainv15 CDX4-inducible mouse embryonic stem cells (iCDX4 ES) were cultured on mitomycin-treated Mouse Embryonic Fibroblasts (MEFs) (Chemicon, strain CF-1) and passaged every 2 to 3 days with 0.25% trypsin/EDTA as previously described. Wang et al., 102 P.N.A.S. 19081-86 (2005). To induce differentiation, ES cells were trypsinized, gently dispersed by repetitive pipetting and re-plated for 45 min at 37° C. for MEF depletion. Floating and loosely-adherent cells were gathered, checked for viability with trypan blue, and diluted in Embryoid Body (EB) differentiation media (Iscove's Modified Dulbecco's Medium [IMDM], 10% FCS [STEMCELL Tech., Vancouver, British Columbia, cat #06952], Penicillin 10 units/ml, Streptomycin 10 μg/ml, 1 mM L-Glutamine, Monothiolglycerol 3.8 nl/ml, Fe-saturated transferrin 0.2 mg/ml, Ascorbic Acid 0.5 mg/ml), to a final concentration of 6.7×10^3 cell/ml. EBs were cultured via the hanging drop method in 15 μl drops on 15 cm bacterial dishes. Typically, 100 plates of EBs were used per experiment. After 48 hr, EBs were pooled into calcium and magnesium containing warm PBS and collected by precipitation in 50 ml Falcon tubes. Pooled EBs were transferred to 10 cm tissue culture dishes containing 10 ml of EB differentiation media each, placed on an orbital shaker moving at 75 rev/min, and incubated for an additional 30 hr. Following this second culture phase, day 3.25-EBs were collected by precipitation, washed two times in 30 ml calcium-free PBS and trypsinized for 1 min in a 1:1 dilution of calcium-free PBS and 0.25% Trypsin-EDTA. Trypsinization was blocked by addition of 10 ml EB differentiation media.
More specifically, in the instant approach, plates were coated with a thick layer of 1% gelatin (DIFCO #214340, Becton Dickinson). After 12 hr, cells were washed three times with 10 ml of warm PBS with calcium and incubated for 45 min with EB differentiation media with or without 2 mM N(G)-nitro-L-arginine methyl ester (L-NAME) or 2 mM N(G)-nitro-D-arginine methyl ester (D-NAME) (Sigma-Aldrich). Cells to be moved to the dynamic flow system were incubated in 7 ml of media, and static controls incubated in 20 ml of media. Following 45 min incubation, cells were either moved to the Dynamic Flow System and exposed to shear stress or maintained in a standard cell culture incubator. The shear stress ramped up in a step-wise fashion from 0 dyne/cm^2 to 5 dyne/cm^2 over a period of 12 hr, in order to minimize cell loss during the transition from static to dynamic culture. Following the 12 hr ramping period, the cells were then exposed to a constant 5 dyne/cm^2 shear stress for 36 hr. […]
Methylcellulose assay was performed as previously described and scored on days 8 to 10 post-plating. […]

The test system of another assay is Runx1. Kind of assay: Quantitative real-time PCR gene expression analysis of Runx1 in ES-derived cells (CD41+/cKit+). It is filed as cell-based, mouse. Conditions: 2 mM; for Runx1 expression in static cultures of ES-derived cells: static conditions, n=2. The method, then: More specifically, in the instant approach, plates were coated with a thick layer of 1% gelatin (DIFCO #214340, Becton Dickinson). After 12 hr, cells were washed three times with 10 ml of warm PBS with calcium and incubated for 45 min with EB differentiation media with or without 2 mM N(G)-nitro-L-arginine methyl ester (L-NAME) or 2 mM N(G)-nitro-D-arginine methyl ester (D-NAME) (Sigma-Aldrich). Cells to be moved to the dynamic flow system were incubated in 7 ml of media, and static controls incubated in 20 ml of media. Following 45 min incubation, cells were either moved to the Dynamic Flow System and exposed to shear stress or maintained in a standard cell culture incubator. The shear stress ramped up in a step-wise fashion from 0 dyne/cm^2 to 5 dyne/cm^2 over a period of 12 hr, in order to minimize cell loss during the transition from static to dynamic culture. Following the 12 hr ramping period, the cells were then exposed to a constant 5 dyne/cm^2 shear stress for 36 hr. In cells exposed to shear stress, culture media with or without D-NAME or L-NAME were automatically exchanged and stored at 37° C. and 5% CO2. In static controls, culture medium was replaced after 24 hr and stored in 75 cm^2 flasks in a cell culture incubator. After 48 hr exposure to shear stress or growth under static conditions, cells were detached by 10 min incubation with a 1:1 dilution of Trypsin-Versene mixture (Cambrex, #17-161E) and Hank's Balanced Salt Solution.
Total RNA was extracted with a RNEASY® Micro Kit (QIAGEN, Inc., Valencia, Calif.), according to manufacturer's instructions. For RNA extraction from CD41^+/cKIT^+ cells, approximately 7,000 cells were sorted directly into 300 μl of Lysis Buffer. Reverse transcription of RNA was performed using MULTISCRIBE™ […] (Applied Biosystems, Foster City, Calif.), according to manufacturer's instructions. When processing FACS-sorted cells, RNA was eluted in 20 μl and all collected RNA was used in 50 μl reverse transcription reaction. […]

The test system of assay [1] is hematopoietic progenitors in the aorta-gonad-mesonephros (AGM) region. The experiment in a line: In vivo colony forming unit (CFU) assay of the AGM region after treating pregnant mice. The note with it: 300 mg/kg i.p. on E8.5 and 24 hr later, E10.5 embryos, versus D-NAME, p=0.0008. Further details: species or system mouse. On the procedure: Methylcellulose assay was performed as previously described and scored on days 8 to 10 post-plating. Wang et al., 102 P.N.A.S. 19081-86 (2005).
Day-7 post-coitum timed-pregnant Swiss-Webster mice were purchased from Taconic Farms. Noon on the day the copulation plug was found was designated 0.5 days. On day E8.5 (day 9 post coitum) mice were intraperitoneally injected with 300 mg/kg of L-NAME or D-NAME (SIGMA) dissolved in sterile, apyrogenic saline solution using a dose volume of 10 ml/kg. The injection was repeated after 24 hr. Exactly 24 hr after the second injection, mice were euthanized with CO2, embryos were harvested, and a conservative dissection of the AGM was performed. Embryo trunks were dissociated with 0.1% dispase and analyzed with the methylcellulose assay. Experiments were carried out with Institutional Animal Care and Use Committee approval from Harvard Medical School or Children's Hospital, Boston.

The text below walks through data of patent US20120195862A1, “BIO[…] OF HEMATOPOIESIS” (CHILDREN'S MEDICAL CENTER CORPORATION, priority 2009, published 2012).

“Also recorded” adds a separate entry of the source.

Consider `COC(=O)[C@H](N)CCCN=C(N)N[N+](=O)[O-]` [D-NAME, N(G)-nitro-D-arginine methyl ester], for which the “number of CFUs in ES-derived cultures in static conditions” value with ES-derived cells was “do not affect; also recorded: no effect”. The “Runx1 expression in static cultures of ES-derived cells” value in the assay on Runx1 is given as “do not affect; also recorded: no effect”.
Consider `COC(=O)[C@@H](N)CCCNC(=N)N[N+](=O)[O-]` [L-NAME, N(G)-nitro-L-arginine methyl ester], for which, in the assay on ES-derived cells (shear stress, compared with cells treated with D-NAME), the “shear stress-induced enrichment in CFUs” value was “significant reduction”. Further, the “reduction of the WSS-mediated increase in hematopoietic colony forming units” value in the assay with ES-derived cells (wall shear stress 5 dyne/cm^2, n=3, p=0.04) is given as 50%. The “number of CFUs in ES-derived cultures in static conditions” value in the assay with ES-derived cells is recorded as “do not affect; also recorded: no effect”. Besides, the “WSS-mediated Runx1 upregulation” value with Runx1 (CD41+/cKit+ cells exposed to shear stress, n=3) was “does not affect; also recorded: did not affect”. Besides, the “Runx1 expression in static cultures of ES-derived cells” value in the assay on Runx1 is on record as “do not affect; also recorded: no effect”. The “number of CFUs per AGM (hematopoietic progenitors in the AGM region)” value in assay [1] is recorded as “reduction; also recorded: marked decrease”.
